A word on the IC50: it is the concentration that inhibits the measured activity by half. Higher therefore signals weaker potency in that assay.

T1 sequence (P57059 whole entry): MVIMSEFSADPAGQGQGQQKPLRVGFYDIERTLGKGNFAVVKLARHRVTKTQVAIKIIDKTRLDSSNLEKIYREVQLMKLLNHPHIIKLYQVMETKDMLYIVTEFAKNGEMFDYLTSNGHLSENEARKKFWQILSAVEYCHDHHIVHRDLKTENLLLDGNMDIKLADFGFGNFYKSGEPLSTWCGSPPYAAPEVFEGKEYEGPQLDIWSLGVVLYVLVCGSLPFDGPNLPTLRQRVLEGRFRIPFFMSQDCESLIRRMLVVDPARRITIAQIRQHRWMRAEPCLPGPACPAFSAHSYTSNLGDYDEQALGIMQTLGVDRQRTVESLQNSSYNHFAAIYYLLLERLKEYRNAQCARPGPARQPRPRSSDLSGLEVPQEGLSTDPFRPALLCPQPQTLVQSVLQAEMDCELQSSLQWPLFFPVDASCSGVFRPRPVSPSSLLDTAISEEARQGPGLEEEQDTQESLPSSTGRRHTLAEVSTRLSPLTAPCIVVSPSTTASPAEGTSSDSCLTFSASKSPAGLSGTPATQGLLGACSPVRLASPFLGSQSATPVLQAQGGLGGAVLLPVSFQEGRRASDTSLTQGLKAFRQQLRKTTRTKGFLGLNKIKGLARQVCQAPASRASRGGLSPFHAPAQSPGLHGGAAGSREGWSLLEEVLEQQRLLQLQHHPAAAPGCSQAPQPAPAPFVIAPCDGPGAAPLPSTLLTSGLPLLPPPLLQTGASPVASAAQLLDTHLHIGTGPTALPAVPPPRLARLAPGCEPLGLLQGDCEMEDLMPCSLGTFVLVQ

One experiment concerns the target T1, SIK1 (Homo sapiens, UniProt P57059).
T1 construct: purchased Carna Biosciences 02-131
Nature of the experiment: ADP-Glo kinase assay, SIK1. In kind it is biochemical. As to conditions: ADP-Glo SIK kinase assay. The method, boiled down: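 Wells with 1% DMSO or 10 μM staurosporine (final) define the control window. The kinase reaction with substrate and ATP runs 120 min at RT, followed by ADP-Glo detection: ATP depletion (40 min) and ADP-derived luminescence (30 min).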
In turn, `COc1cc(-c2cnc3cc(OCC(O)CN4CCOCC4)ccn23)cc(OC(F)F)c1C(=O)NC1CC1` (single isomer, unassigned) [Cpd 386, N-cyclopropyl-2-(difluoromethoxy)-4-[7-(2-hydroxy-3-morpholino-propoxy)imidazo[1,2-a]pyridin-3-yl]-6-methoxy-benzamide] came in with an IC50 of 10 to 100 nM.

Turning to `COc1cc(-c2cnc3cc(OC[C@H]4COCCO4)ccn23)cc2c1C(=O)N(CC(F)F)CC2` [compound 219, 2-(2,2-difluoroethyl)-6-[7-[[(2R)-1,4-dioxan-2-yl]methoxy]imidazo[1,2-a]pyridin-3-yl]-8-methoxy-3,4-dihydroisoquinolin-1-one], the IC50 lay within 100 to 500 nM.

Consider `COc1cc(-c2cnc3cc(OC[C@H]4COCCO4)ccn23)cc2c1C(=O)NCC2` [compound 242, 6-[7-[[(2R)-1,4-dioxan-2-yl]methoxy]imidazo[1,2-a]pyridin-3-yl]-8-methoxy-3,4-dihydro-2H-isoquinolin-1-one], for which the half-inhibitory concentration (IC50) was in the range of 10 to 100 nM.

With `COc1cc(-c2cnc3cc(OCCOCCN4CCCCC4)ccn23)cc(OC(F)F)c1C(=O)NC1CC1` [compound 305], the IC50 lay in the range of 10 to 100 nM.

As to `COc1cc(-c2cnc3cc(OCCCN4CCC5(CC4)CN(C)C(=O)O5)ccn23)cc(OC(F)F)c1C(=O)NC1CC1` [compound 325, N-cyclopropyl-2-(difluoromethoxy)-6-methoxy-4-[7-[3-(3-methyl-2-oxo-1-oxa-3,8-diazaspiro[4.5]decan-8-yl)propoxy]imidazo[1,2-a]pyridin-3-yl]benzamide], the IC50 lay in the range of 10 to 100 nM.

Molecule `COc1cc(-c2cnc3cc(OCCN4CCN(C)CC4)ccn23)cc(OC(F)F)c1C(=O)NC1CC1` [compound 9, N-cyclopropyl-2-(difluoromethoxy)-6-methoxy-4-[7-[2-(4-methylpiperazin-1-yl)ethoxy]imidazo[1,2-a]pyridin-3-yl]benzamide] displayed an IC50 of 10 to 100 nM.

In the case of `COc1cc(-c2cnc3cc(OCCCN4CCC4)ccn23)cc(OC(F)F)c1C(=O)NC1CC1` [compound 274, 4-[7-[3-(azetidin-1-yl)propoxy]imidazo[1,2-a]pyridin-3-yl]-N-cyclopropyl-2-(difluoromethoxy)-6-methoxy-benzamide], the concentration for half-maximal inhibition (IC50) lay within 0.01 to 10 nM.

`COc1cc(-c2cnc3cc(OCCN4CCN(C(C)C)CC4)ccn23)cc(OC(F)F)c1C(=O)NC1CC1` [compound 276, N-cyclopropyl-2-(difluoromethoxy)-4-[7-[2-(4-isopropylpiperazin-1-yl)ethoxy]imidazo[1,2-a]pyridin-3-yl]-6-methoxy-benzamide] displayed a 50% inhibitory concentration (IC50) of 10 to 100 nM.

As to `COc1cc(-c2cnc3cc(OCC(O)CN4CCOCC4)ccn23)cc(OC(F)F)c1C(=O)NC1CC1` (single isomer, unassigned) [Cpd 387, N-cyclopropyl-2-(difluoromethoxy)-4-[7-(2-hydroxy-3-morpholino-propoxy)imidazo[1,2-a]pyridin-3-yl]-6-methoxy-benzamide], the 50% inhibitory concentration (IC50) is 10 to 100 nM.

The molecule `CCOC(=O)C1(F)CCN(CCOc2ccn3c(-c4cc(OC)c(C(=O)NC5CC5)c(OC(F)F)c4)cnc3c2)CC1` [compound 390, ethyl 1-[2-[3-[4-(cyclopropylcarbamoyl)-3-(difluoromethoxy)-5-methoxy-phenyl]imidazo[1,2-a]pyridin-7-yl]oxyethyl]-4-fluoro-piperidine-4-carboxylate] returned an IC50 of 10 to 100 nM.

Regarding `COc1cc(-c2cnc3cc(OCCN4CC(F)(F)C4)ccn23)cc2c1C(=O)N(CC(F)(F)F)CC2` [Cpd 244, 6-[7-[2-(3,3-difluoroazetidin-1-yl)ethoxy]imidazo[1,2-a]pyridin-3-yl]-8-methoxy-2-(2,2,2-trifluoroethyl)-3,4-dihydroisoquinolin-1-one], the IC50 lay within 100 to 500 nM.

Turning to `COc1cc(-c2cnc3cc(OCCCN4CCC5(CC4)CNC(=O)O5)ccn23)cc(OC(F)F)c1C(=O)NC1CC1` [Cpd 324, N-cyclopropyl-2-(difluoromethoxy)-6-methoxy-4-[7-[3-(2-oxo-1-oxa-3,8-diazaspiro[4.5]decan-8-yl)propoxy]imidazo[1,2-a]pyridin-3-yl]benzamide], the half-maximal inhibitory concentration (IC50) lay in the range of 10 to 100 nM.

As for `COc1cc(-c2cnc3cc(OCCCN4CCCC4)ccn23)cc(OC(F)F)c1C(=O)NC1CC1` [compound 275, N-cyclopropyl-2-(difluoromethoxy)-6-methoxy-4-[7-(3-pyrrolidin-1-ylpropoxy)imidazo[1,2-a]pyridin-3-yl]benzamide], the IC50 lay within 10 to 100 nM.

`CCOC(=O)C1(F)CCN(CCCOc2ccn3c(-c4cc(OC)c(C(=O)NC5CC5)c(OC(F)F)c4)cnc3c2)CC1` [Cpd 363, ethyl 1-[3-[3-[4-(cyclopropylcarbamoyl)-3-(difluoromethoxy)-5-methoxy-phenyl]imidazo[1,2-a]pyridin-7-yl]oxypropyl]-4-fluoro-piperidine-4-carboxylate] registered a half-inhibitory concentration (IC50) of 10 to 100 nM.

In turn, `COc1cc(-c2cnc3cc(OCCN4C5CCC4COC5)ccn23)cc(OC(F)F)c1C(=O)NC1CC1` [compound 193, N-cyclopropyl-2-(difluoromethoxy)-6-methoxy-4-[7-[2-(3-oxa-8-azabicyclo [3.2.1]octan-8-yl)ethoxy]imidazo[1,2-a]pyridin-3-yl]benzamide] yielded a half-maximal inhibitory concentration (IC50) of 10 to 100 nM.

Molecule `COc1cc(-c2cnc3cc(OCCCN4CCS(=O)(=O)CC4)ccn23)cc(OC(F)F)c1C(=O)NC1CC1` [Cpd 331, N-cyclopropyl-2-(difluoromethoxy)-4-[7-[3-(1,1-dioxo-1,4-thiazinan-4-yl)propoxy]imidazo[1,2-a]pyridin-3-yl]-6-methoxy-benzamide] returned an IC50 of 10 to 100 nM.

As for `COc1cc(-c2cnc3cc(OCC4(F)CN(C(=O)OC(C)(C)C)C4)ccn23)cc2c1C(=O)N(CC(F)(F)F)CC2` [compound 248, tert-butyl 3-fluoro-3-[[3-[8-methoxy-1-oxo-2-(2,2,2-trifluoroethyl)-3,4-dihydroisoquinolin-6-yl]imidazo[1,2-a]pyridin-7-yl]oxymethyl]azetidine-1-carboxylate], the 50% inhibitory concentration (IC50) lay within 100 to 500 nM.

Consider `COc1cc(-c2cnc3cc(OCCN4CCOC[C@H]4C)ccn23)cc2c1C(=O)N(CC(F)(F)F)CC2` [compound 259, 8-methoxy-6-[7-[2-[(3R)-3-methylmorpholin-4-yl]ethoxy]imidazo[1,2-a]pyridin-3-yl]-2-(2,2,2-trifluoroethyl)-3,4-dihydroisoquinolin-1-one], for which the IC50 is 100 to 500 nM.

The molecule `COc1cc(-c2cnc3cc(OC(C)(C)CO)ccn23)cc(OC(F)F)c1C(=O)NC1CC1` [Cpd 209, N-cyclopropyl-2-(difluoromethoxy)-4-[7-(2-hydroxy-1,1-dimethyl-ethoxy)imidazo[1,2-a]pyridin-3-yl]-6-methoxy-benzamide] had an IC50 of over 500 nM.

The molecule `COc1cc(-c2cnc3cc(OCCCN4CC5(COC5)C4)ccn23)cc(OC(F)F)c1C(=O)NC1CC1` [compound 273, N-cyclopropyl-2-(difluoromethoxy)-6-methoxy-4-[7-[3-(2-oxa-6-azaspiro[3.3]heptan-6-yl)propoxy]imidazo[1,2-a]pyridin-3-yl]benzamide] showed an IC50 of 10 to 100 nM.

The next experiment has as its system LPS triggered IL-10 secretion in monocyte-derived macrophages (MdM). Nature of the experiment: MdM assay: LPS-triggered IL-10 (ELISA). It is filed as cell-based, human. As to conditions: LPS 200 ng/mL, supernatant after 2 h, maximal fold change vs LPS only. As to the method:
SIK inhibition inhibits TNFα and increases IL-10 release in LPS triggered monocyte-derived macrophages (MdM) and dendritic […] al. 2012; Sundberg et al. 2014; Ozanne et al. 2015). This assay evaluates illustrative compounds of the invention for their inhibition of LPS-induced TNFα and LPS triggered IL-10 secretion in monocyte-derived macrophages. PBMCs are isolated from human blood samples (buffycoats). The buffy coat is aseptically transferred into a 50 mL Falcon tube, and diluted 1/2 in PBS. Falcon tubes are filled with 20 mL LymphoprepTM, on top of which 25 mL of the buffy coat is carefully added, tubes are centrifuged for 35 min at 400 g in temperature controlled centrifuge, without brake, at 25° C. PBMCs are aspirated from the white interface layer between sample and LymphoprepTM. PBMCs are washed five times in PBS. Cells are resuspended in RPMI 1640 complete medium supplemented with 10% FBS, 1% P/S, and cell density is determined using a hematologic analyzer (Sysmex XS-500i). PBMCs are centrifuged at 300×g for 10 min and resuspended at a density of 1.0*10^7 cells/80 μL Miltenyi buffer (PBS, pH 7.4, 1% FBS, 2 mM EDTA). Starting from this point of the protocol all steps are performed on ice. 20 μL of CD14+ micro-beads are added per 1.0*10^7 cells, the tube is mixed and incubated for 15 min in the fridge at 4° C. Cell suspension volume is adjusted to total volume of 100 mL using Miltenyi buffer, mixed gently and subsequently centrifuged for 10 min at 300×g. Supernantant is discarded and cell pellet is resuspended in 12 mL of Miltenyi buffer. Four LS columns are placed in the MACS Separator (magnet) from Miltenyi Biotec, and are prewet by rinsing with 3 mL of MACS buffer per column. Three mL of cell suspension is added onto the column (max 1*10^8 of labelled cells/column), and columns are subsequently washed 3 times with 3 mL of Miltenyi buffer. The columns are removed from the magnets, and 5 mL of Miltenyi buffer are added to the column to flush out the CD14+ fraction by pushing the plunger into the column. The flushed fractions are collected in a fresh 50 mL Falcon and volume is adjusted to 30 mL using Miltenyi buffer, cells are centrifuged for 10 min at 300×g. The obtained cell pellet is resuspended in 10 mL RPMI w/o FBS, and cell density is determined using a hematologic analyser (Sysmex XS-500i). 100 000 cells are seeded per well of a 96-well plate for differentiation to MdM in RPMI 1640 medium supplemented with 10% FBS, 1% P/S and 100 ng/mL rhM-CSF. On day 5 the medium is refreshed with 100 μL RPMI 1640 medium supplemented with 10% FBS, 1% P/S and 100 ng/mL rhM-CSF. On day 10, MdMs are triggered and compound is added. A compound dilution plate is made in 100% DMSO by 3-fold dilution of 10 mM stock solution. An intermediate dilution plate (10× final concentration) is made by diluting the compound dilution plate 50-fold in RPMI medium. Medium is carefully removed from cell plates using multichannel pipette, and replaced by 80 μL fresh medium. 10 μL of the 10× final concentration compound is added to the cells and incubated for 1 hour at 37° C. before addition of trigger. No trigger conditions/trigger conditions are spiked with equal final DMSO concentrations of 0.2% DMSO. 10 μL of 10×LPS (final conc. 200 ng/mL) solution are added to all wells except for the 'no trigger wells' where 10 μL medium is added. Supernatant is collected after 2 h (IL-10 determination) and after 20 h (TNFα determination) of LPS triggering. […]
(In an ELISA, binding on a coated surface is turned into a signal by an enzyme label.)
Take `COc1cc(-c2cnc3cc(OC[C@H]4COCCO4)ccn23)cc2c1C(=O)N(CC(F)F)CC2` [compound 219, 2-(2,2-difluoroethyl)-6-[7-[[(2R)-1,4-dioxan-2-yl]methoxy]imidazo[1,2-a]pyridin-3-yl]-8-methoxy-3,4-dihydroisoquinolin-1-one]: the “IL-10 FCmax median” value was “++ (>1.5-4.5)”.

Take `COc1cc(-c2cnc3cc(OCCN4CCOCC4)ccn23)cc2c1C(=O)N(CC(F)(F)F)CC2` [Cpd 88, 8-methoxy-6-[7-(2-morpholinoethoxy)imidazo [1,2-a]pyridin-3-yl]-2-(2,2,2-trifluoroethyl)-3,4-dihydroisoquinolin-1-one]: the “IL-10 FCmax median” value is “++ (>1.5-4.5)”.

The values are drawn from patent US12264156B2, “Compounds and pharmaceutical compositions thereof for the treatment of diseases” (GALAPAGOS NV, priority 2018, dated 2025).
